The values below come from patent US9023789B2, “Amylin analogs and pharmaceutical compositions thereof” (Novo Nordisk A/S, priority 2012, dated 2015).

Numbered stars: 1 amine (or outer) side, 2 acyl side, 3 side chain; on linkers, the order of the positions; unused ones are H or OH. Bridge positions count the residues as written; N and C are the ends. Side chains are listed from the residue outwards. Peptide text beside a SMILES is read from it. * marks the point of attachment. C20 diacid = O=C(O)CCCCCCCCCCCCCCCCCCC(=O)*; γGlu = O=C(O)[C@H](CCC(=O)[*:2])N[*:1]; AEEA = NCCOCCOCC(=O)O

This assay deals with T1, rat amylin receptor (rat calcitonin receptor + rat RAMP 3) (Rattus norvegicus, UniProt P32214+Q9JJ73).
T1 construct: expressed in transfected cells; host or cells: BHK tk'ts 13 (transient, FuGENE 6), membranes
T1 sequence (P32214 25-479 isoform P32214-2 limits assumed): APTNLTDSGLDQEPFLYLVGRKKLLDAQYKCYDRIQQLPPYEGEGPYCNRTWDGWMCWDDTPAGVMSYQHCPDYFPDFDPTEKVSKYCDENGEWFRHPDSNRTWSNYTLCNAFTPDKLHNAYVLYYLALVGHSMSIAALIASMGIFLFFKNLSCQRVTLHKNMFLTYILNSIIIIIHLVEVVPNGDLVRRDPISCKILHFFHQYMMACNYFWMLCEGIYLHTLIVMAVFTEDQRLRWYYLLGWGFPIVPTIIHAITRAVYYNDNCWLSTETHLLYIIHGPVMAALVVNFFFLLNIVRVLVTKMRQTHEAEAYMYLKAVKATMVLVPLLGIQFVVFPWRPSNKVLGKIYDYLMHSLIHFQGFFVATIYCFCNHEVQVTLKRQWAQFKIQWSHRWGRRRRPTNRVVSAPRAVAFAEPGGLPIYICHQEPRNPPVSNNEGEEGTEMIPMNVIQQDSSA
T1 sequence (Q9JJ73 23-147 partner): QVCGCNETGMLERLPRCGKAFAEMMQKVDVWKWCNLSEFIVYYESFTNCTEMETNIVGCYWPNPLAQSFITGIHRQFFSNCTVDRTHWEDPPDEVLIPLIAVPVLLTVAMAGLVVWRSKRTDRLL
Description: ASSAY (VI) binding to the rat amylin receptor. As to conditions: for IC50: binding to rat amylin receptor, read-out: rAmylin-R bind IC50. The procedure, abridged:
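The cell-membrane assay assessed binding at the rat amylin receptor. BHK tk′ts 13 cells were transfected transiently with rat calcitonin receptor, with FuGENE® 6 (Roche) as the transfection reagent, used per the manufacturer's recommendations. Approximately 48 hours after transfection the cells were harvested, and membranes were prepared for measuring binding.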

Setting [1] is: Table 7, rat binding selectivity, rCTR IC50 / rAmylin-R IC50.
[2] abbreviates: Table 7a (preferred compounds), rat binding selectivity, rCTR IC50 / rAmylin-R IC50.
[3] abbreviates: ratio of rCTR bind IC50 to rAmylin-R bind IC50.

As a reminder, the IC50 is the concentration that inhibits the measured activity by half. Regarding `CC[C@H](C)[C@H](NC(=O)[C@H](C)NC(=O)CNC(=O)[C@H](Cc1ccccc1)NC(=O)[C@H](CC(N)=O)NC(=O)[C@@H]1CCCN1C(=O)[C@H](CO)NC(=O)[C@H](CO)NC(=O)[C@H](Cc1c[nH]cn1)NC(=O)[C@H](CCCNC(=N)N)NC(=O)[C@H](CC(C)C)NC(=O)[C@H](Cc1ccccc1)NC(=O)[C@H](CC(N)=O)NC(=O)[C@H](C)NC(=O)[C@H](CC(C)C)NC(=O)[C@H](CCCNC(=N)N)NC(=O)[C@H](CCC(N)=O)NC(=O)[C@@H](NC(=O)[C@H](C)NC(=O)[C@@H]1CSSC[C@H](NC(=O)[C@H](CCCNC(=N)N)NC(=O)[C@@H](N)CCCCNC(=O)COCCOCCNC(=O)CC[C@H](NC(=O)CCCCCCCCCCCCCCCCCCC(=O)O)C(=O)O)C(=O)N[C@@H](CC(N)=O)C(=O)N[C@@H]([C@@H](C)O)C(=O)N[C@@H](C)C(=O)N[C@@H]([C@@H](C)O)C(=O)N1)[C@@H](C)O)C(=O)N1CCC[C@H]1C(=O)N[C@@H](CO)C(=O)N[C@@H](CO)C(=O)N[C@H](C(=O)N[C@@H](CC(N)=O)C(=O)N[C@H](C(=O)NCC(=O)N[C@@H](CO)C(=O)N[C@@H](Cc1c[nH]cn1)C(=O)N[C@H](C(=O)N[C@@H](Cc1ccc(O)cc1)C(N)=O)[C@@H](C)O)C(C)C)[C@@H](C)O` [Example 45] (H-K([AEEA-γGlu-C20 diacid])RCNTATCATQRLANFLRHSSPNFGAIPSSTNVGSHTY-NH2; disulfide 3-8 (inferred)), under “Table 7”, the IC50 was determined as 0.623 nM. Moreover, the “Ratio rCT/rAmylin binding” value under setting [1] came out at 67.1, the “Ratio rCT/rAmylin binding” value under setting [2] stood at 67.1 and the “Ratio rCT/rAmylin binding” value under setting [3] came out at 67.1.

`CC[C@H](C)[C@H](NC(=O)[C@H](C)NC(=O)CNC(=O)[C@H](Cc1ccccc1)NC(=O)[C@H](CC(N)=O)NC(=O)[C@@H]1CCCN1C(=O)[C@H](CO)NC(=O)[C@H](CO)NC(=O)[C@H](Cc1c[nH]cn1)NC(=O)[C@H](CCCNC(=N)N)NC(=O)[C@H](CC(C)C)NC(=O)[C@H](Cc1ccccc1)NC(=O)[C@H](CCC(=O)O)NC(=O)[C@H](C)NC(=O)[C@H](CC(C)C)NC(=O)[C@H](CCCNC(=N)N)NC(=O)[C@H](CCC(N)=O)NC(=O)[C@@H](NC(=O)[C@H](C)NC(=O)[C@@H]1CSSC[C@H](NC(=O)[C@H](CCCCN)NC(=O)CC[C@H](NC(=O)CCCCCCCCCCCCCCCCCCC(=O)O)C(=O)O)C(=O)N[C@@H](CC(N)=O)C(=O)N[C@@H]([C@@H](C)O)C(=O)N[C@@H](C)C(=O)N[C@@H]([C@@H](C)O)C(=O)N1)[C@@H](C)O)C(=O)N1CCC[C@H]1C(=O)N[C@@H](CO)C(=O)N[C@@H](CO)C(=O)N[C@H](C(=O)N[C@@H](CC(N)=O)C(=O)N[C@H](C(=O)NCC(=O)N1CCC[C@H]1C(=O)N[C@@H](CC(N)=O)C(=O)N[C@H](C(=O)N[C@@H](Cc1ccc(O)cc1)C(N)=O)[C@@H](C)O)C(C)C)[C@@H](C)O` [Example 32] ({C20 diacid-γGlu}-KCNTATCATQRLAEFLRHSSPNFGAIPSSTNVGPNTY-NH2; disulfide 2-7): the IC50 (Table 7) was 0.176 nM. Moreover, the “Ratio rCT/rAmylin binding” value is, setting by setting: under setting [1], 34.0; under setting [2], 34.0; under setting [3], 34.0.

Consider `CC[C@H](C)[C@H](NC(=O)[C@H](C)NC(=O)CNC(=O)[C@H](Cc1ccccc1)NC(=O)[C@H](CC(N)=O)NC(=O)[C@@H]1CCCN1C(=O)[C@H](CO)NC(=O)[C@H](CO)NC(=O)[C@H](Cc1c[nH]cn1)NC(=O)[C@H](CCCNC(=N)N)NC(=O)[C@H](CC(C)C)NC(=O)[C@H](Cc1ccccc1)NC(=O)[C@H](CC(N)=O)NC(=O)[C@H](C)NC(=O)[C@H](CC(C)C)NC(=O)[C@H](CCCNC(=N)N)NC(=O)[C@H](CCC(N)=O)NC(=O)[C@@H](NC(=O)[C@H](C)NC(=O)[C@@H]1CSSC[C@H](NC(=O)[C@@H](N)CCCCNC(=O)CC[C@H](NC(=O)CCCCCCCCCCCCCCCCCCC(=O)O)C(=O)O)C(=O)N[C@@H](CC(N)=O)C(=O)N[C@@H]([C@@H](C)O)C(=O)N[C@@H](C)C(=O)N[C@@H]([C@@H](C)O)C(=O)N1)[C@@H](C)O)C(=O)N1CCC[C@H]1C(=O)N[C@@H](CO)C(=O)N[C@@H](CO)C(=O)N[C@H](C(=O)N[C@@H](CC(N)=O)C(=O)N[C@H](C(=O)NCC(=O)N[C@@H](CO)C(=O)N[C@@H](CCC(=O)O)C(=O)N[C@H](C(=O)N[C@@H](Cc1ccc(O)cc1)C(N)=O)[C@@H](C)O)C(C)C)[C@@H](C)O` [Example 27], for which, for the setting “Table 7”, the IC50 is 0.614 nM. Moreover, the “Ratio rCT/rAmylin binding” value under setting [1] is 146.8, the “Ratio rCT/rAmylin binding” value under setting [2] was 146.8 and the “Ratio rCT/rAmylin binding” value under setting [3] was 146.8.

Consider `CC[C@H](C)[C@H](NC(=O)[C@H](C)NC(=O)CNC(=O)[C@H](Cc1ccccc1)NC(=O)[C@H](CC(N)=O)NC(=O)[C@@H]1CCCN1C(=O)[C@H](CO)NC(=O)[C@H](CO)NC(=O)[C@H](Cc1c[nH]cn1)NC(=O)[C@H](CCCNC(=N)N)NC(=O)[C@H](CC(C)C)NC(=O)[C@H](Cc1ccccc1)NC(=O)[C@H](CC(N)=O)NC(=O)[C@H](C)NC(=O)[C@H](CC(C)C)NC(=O)[C@H](CCCNC(=N)N)NC(=O)[C@H](CCC(N)=O)NC(=O)[C@@H](NC(=O)[C@H](C)NC(=O)[C@@H]1CSSC[C@H](NC(=O)[C@@H](N)CCCCNC(=O)CC[C@H](NC(=O)CCCCCCCCCCCCCCCCCCC(=O)O)C(=O)O)C(=O)N[C@@H](CC(N)=O)C(=O)N[C@@H]([C@@H](C)O)C(=O)N[C@@H](C)C(=O)N[C@@H]([C@@H](C)O)C(=O)N1)[C@@H](C)O)C(=O)N1CCC[C@H]1C(=O)N[C@@H](CO)C(=O)N[C@@H](CO)C(=O)N[C@H](C(=O)N[C@@H](CC(N)=O)C(=O)N[C@H](C(=O)NCC(=O)N[C@@H](CO)C(=O)N[C@@H](Cc1c[nH]cn1)C(=O)N[C@H](C(=O)N[C@@H](Cc1ccc(O)cc1)C(N)=O)[C@@H](C)O)C(C)C)[C@@H](C)O` [Example 60], for which the IC50 (Table 7) is 0.215 nM. Also, the “Ratio rCT/rAmylin binding” value under setting [1] came out at 122.4, the “Ratio rCT/rAmylin binding” value under setting [2] is recorded as 122.4 and the “Ratio rCT/rAmylin binding” value under setting [3] was 122.4.

For `CC[C@H](C)[C@H](NC(=O)[C@H](C)NC(=O)CNC(=O)[C@H](Cc1ccccc1)NC(=O)[C@H](CC(N)=O)NC(=O)[C@@H]1CCCN1C(=O)[C@H](CO)NC(=O)[C@H](CO)NC(=O)[C@H](Cc1c[nH]cn1)NC(=O)[C@H](CCCNC(=N)N)NC(=O)[C@H](CC(C)C)NC(=O)[C@H](Cc1ccccc1)NC(=O)[C@H](CC(N)=O)NC(=O)[C@H](C)NC(=O)[C@H](CC(C)C)NC(=O)[C@H](CCCNC(=N)N)NC(=O)[C@H](CCC(N)=O)NC(=O)[C@@H](NC(=O)[C@H](C)NC(=O)[C@@H]1CSSC[C@H](NC(=O)[C@H](CCCCN)NC(=O)CC[C@H](NC(=O)CCCCCCCCCCCCCCCCCCC(=O)O)C(=O)O)C(=O)N[C@@H](CC(N)=O)C(=O)N[C@@H]([C@@H](C)O)C(=O)N[C@@H](C)C(=O)N[C@@H]([C@@H](C)O)C(=O)N1)[C@@H](C)O)C(=O)N1CCC[C@H]1C(=O)N[C@@H](CO)C(=O)N[C@@H](CO)C(=O)N[C@H](C(=O)N[C@@H](CC(N)=O)C(=O)N[C@H](C(=O)NCC(=O)N[C@@H](CO)C(=O)N[C@@H](CCCCN)C(=O)N[C@H](C(=O)N[C@@H](Cc1ccc(O)cc1)C(N)=O)[C@@H](C)O)C(C)C)[C@@H](C)O` [Example 34], the IC50 (Table 7) stood at 1.72 nM. The “Ratio rCT/rAmylin binding” value under setting [1] worked out at 52.0, the “Ratio rCT/rAmylin binding” value under setting [2] stood at 52.0 and the “Ratio rCT/rAmylin binding” value under setting [3] is reported as 52.0.

On to `CC[C@H](C)[C@H](NC(=O)[C@H](C)NC(=O)CNC(=O)[C@H](Cc1ccccc1)NC(=O)[C@H](CC(N)=O)NC(=O)[C@@H]1CCCN1C(=O)[C@H](CO)NC(=O)[C@H](CO)NC(=O)[C@H](Cc1c[nH]cn1)NC(=O)[C@H](CCCNC(=N)N)NC(=O)[C@H](CC(C)C)NC(=O)[C@H](Cc1ccccc1)NC(=O)[C@H](CC(N)=O)NC(=O)[C@H](C)NC(=O)[C@H](CC(C)C)NC(=O)[C@H](CCCNC(=N)N)NC(=O)[C@H](CCC(N)=O)NC(=O)[C@@H](NC(=O)[C@H](C)NC(=O)[C@@H]1CSSC[C@H](NC(=O)[C@H](CCCCN)NC(=O)CC[C@H](NC(=O)CCCCCCCCCCCCCCCCCCC(=O)O)C(=O)O)C(=O)N[C@@H](CC(N)=O)C(=O)N[C@@H]([C@@H](C)O)C(=O)N[C@@H](C)C(=O)N[C@@H]([C@@H](C)O)C(=O)N1)[C@@H](C)O)C(=O)N1CCC[C@H]1C(=O)N[C@@H](CO)C(=O)N[C@@H](CO)C(=O)N[C@H](C(=O)N[C@@H](CC(N)=O)C(=O)N[C@H](C(=O)NCC(=O)N[C@@H](Cc1c[nH]cn1)C(=O)N[C@@H](CC(N)=O)C(=O)N[C@H](C(=O)N[C@@H](Cc1ccc(O)cc1)C(N)=O)[C@@H](C)O)C(C)C)[C@@H](C)O` [Example 40], for which the half-maximal inhibitory concentration (IC50) (Table 7) came out at 1.5 nM. Also, the “Ratio rCT/rAmylin binding” value was found to be 46.2 under setting [1], 46.2 under setting [2] and 46.2 under setting [3].
